≈ marks a conversion by molar mass, not a printed value. Residues, ends and D or L forms follow the SMILES beside them. *: point of attachment. Decanoyl = CCCCCCCCCC(=O)*
Tests used:
[1] = tested on: S. aureus PCM2054; type: cell-based, Staphylococcus aureus; conditions: Mueller–Hinton broth, inoculum 5 × 10^5 CFU/mL, 24 h, 37 °C, absorbance 600 nm, triplicate
Method in brief: (§1)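 Broth microdilution MICs per CLSI guidelines: bacteria in Mueller–Hinton broth, 24 h at 37 °C; yeasts in MOPS-buffered RPMI-1640 with 2% glucose, 24 h at 35 °C. Growth read by absorbance at 600 nm, % inhibition versus compound-free inoculated wells; triplicate.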

[2] = tested on: S. aureus PCM1650; type: cell-based, Staphylococcus aureus; conditions: Mueller–Hinton broth, inoculum 5 × 10^5 CFU/mL, 24 h, 37 °C, absorbance 600 nm, triplicate
Method in brief: as §1

[3] = tested on: C. krusei CCM8271; type: cell-based, Candida krusei; conditions: RPMI-1640 with MOPS and 2% glucose, inoculum 5 × 10^3 CFU/mL, 24 h, 35 °C, absorbance 600 nm, triplicate
Method in brief: as §1

[4] = tested on: S. epidermidis PCM2118; type: cell-based, Staphylococcus epidermidis; conditions: Mueller–Hinton broth, inoculum 5 × 10^5 CFU/mL, 24 h, 37 °C, absorbance 600 nm, triplicate
Method in brief: as §1

[5] = tested on: S. epidermidis PCM521; type: cell-based, Staphylococcus epidermidis; conditions: Mueller–Hinton broth, inoculum 5 × 10^5 CFU/mL, 24 h, 37 °C, absorbance 600 nm, triplicate
Method in brief: as §1

[6] = tested on: human breast cancer cells (MCF-7 line, ATCC); experiment: MTT cytotoxicity assay; type: cell-based; conditions: IC50 against HaCaT divided by IC50 for MCF-7
Description: (§2) The prepared plates were further incubated for 48 h. […] The control cell viability was assumed to be 100%. Three independent experiments were carried out in three repetitions.

[7] = tested on: human prostate cancer cells (PC3 line, ATCC); experiment: MTT cytotoxicity assay; type: cell-based; conditions: IC50 against HaCaT divided by IC50 for PC3
Description: as §2

[8] = tested on: C. parapsilosis CCM 8260; type: cell-based, Candida parapsilosis; conditions: RPMI-1640 with MOPS and 2% glucose, inoculum 5 × 10^3 CFU/mL, 24 h, 35 °C, absorbance 600 nm, triplicate
Method in brief: as §1

[9] = tested on: C. glabrata CCM8270; type: cell-based, Candida glabrata; conditions: RPMI-1640 with MOPS and 2% glucose, inoculum 5 × 10^3 CFU/mL, 24 h, 35 °C, absorbance 600 nm, triplicate
Method in brief: as §1

[10] = tested on: POPC liposomes; experiment: CD, α-helix content in POPC liposomes; type: physicochemical; conditions: 25 °C, peptide 0.15 mg/mL, 1.3 mM POPC
Description: (§3) Large unilamellar vesicles (LUV) were obtained by extrusion of MLV liposomes through polycarbonate membrane filters with a pore diameter of 100 nm (Whatman International Ltd., Kent, UK) using a mini-extruder (Avanti Polar Lipids, Inc., Alabaster, AL, USA).
(§4) CD experiments were carried out at 25 °C using a Jasco J-815 spectropolarimeter in the wavelength range 185–260 nm. The concentration of the lipopeptides was 0.15 mg/mL. The CD spectra were recorded in water, PBS (pH 7.4), 1.3 mM POPC and 1.3 mM POPG. The results are plotted as the mean molar ellipticity per one amino acid residue (MRME, deg cm^2 dmol^−1) as a function of the wavelength (nm). Additionally, we performed a conformational analysis of the selected compounds in the presence of S. aureus cells. […] The mixtures were then incubated for 2 h before recording the CD spectra.
(§5) The percentage of the α-helical structure was calculated based on the mean molar ellipticity at 222 nm using the formula: fH=θ222−3000/−36000−3000·100% where θ222 corresponds to the value of the mean molar ellipticity at a wavelength of 222 nm.

[11] = target: POPG LUVs; experiment: Isothermal titration calorimetry, binding to POPG LUVs; conditions: ITC, 25 °C
Description: as §3
The thermodynamic parameters of the interactions of the lipopeptides with POPG and POPC liposomes were determined by isothermal titration calorimetry (ITC). Measurements were performed at 25 °C using an AutoITC microcalorimeter (MicroCal Inc., Northampton, MA, USA) with a 1.4491 mL sample and reference cells. The experiment consisted in the titration of a buffered peptide solution with a concentration of 0.05 and/or 0.07 mM with a buffered solution containing POPG or POPC LUVs with a lipid concentration of 1.3 and 1.8 mM (10.02 µL; 29 injections, 2 µL for the first injection only), as it was described previously. The result of the titration was a thermogram showing a series of peaks corresponding to the titration steps. A titration curve was obtained after integration of the peak areas. The obtained isotherms were fitted to the “one set of sites” or “two sets of sites” models available in the ORIGIN 7.0 (MicroCal Inc., Northampton, MA, USA), which made it possible to determine the enthalpy (ΔH), the binding constant (KITC) and the stoichiometry (N) of the interactions between the lipopeptide and the lipids. The following formula was used to calculate the entropy change (ΔS) and the Gibbs free energy (ΔG): ΔG=−RTln(55.5KITC)=ΔH−TΔS where: factor 55.5 is the molar concentration of water, R is the gas constant (1.986 cal·mol^−1·K^−1), and T is the absolute temperature.

[12] = tested on: C. albicans PCM2566; type: cell-based, Candida albicans; conditions: RPMI-1640 with MOPS and 2% glucose, inoculum 5 × 10^3 CFU/mL, 24 h, 35 °C, absorbance 600 nm, triplicate
Method in brief: as §1

[13] = target: POPC LUVs; experiment: Isothermal titration calorimetry, binding to POPC LUVs; conditions: ITC, 25 °C, 1.3 mM POPC to 0.05 mM C10-LL-I
Description: as §3
The thermodynamic parameters of the interactions of the lipopeptides with POPG and POPC liposomes were determined by isothermal titration calorimetry (ITC). Measurements were performed at 25 °C using an AutoITC microcalorimeter (MicroCal Inc., Northampton, MA, USA) with a 1.4491 mL sample and reference cells. The experiment consisted in the titration of a buffered peptide solution with a concentration of 0.05 and/or 0.07 mM with a buffered solution containing POPG or POPC LUVs with a lipid concentration of 1.3 and 1.8 mM (10.02 µL; 29 injections, 2 µL for the first injection only), as it was described previously. The result of the titration was a thermogram showing a series of peaks corresponding to the titration steps. A titration curve was obtained after integration of the peak areas. The obtained isotherms were fitted to the “one set of sites” or “two sets of sites” models available in the ORIGIN 7.0 (MicroCal Inc., Northampton, MA, USA), which made it possible to determine the enthalpy (ΔH), the binding constant (KITC) and the stoichiometry (N) of the interactions between the lipopeptide and the lipids. […]

[14] = tested on: E. coli PCM2057; type: cell-based, Escherichia coli; conditions: Mueller–Hinton broth, inoculum 5 × 10^5 CFU/mL, 24 h, 37 °C, absorbance 600 nm, triplicate
Method in brief: as §1

[15] = tested on: POPG liposomes; experiment: CD, α-helix content in POPG liposomes; type: physicochemical; conditions: 25 °C, peptide 0.15 mg/mL, 1.3 mM POPG
Description: as §3, §4, §5

Question: How did the “MIC, S. aureus PCM2054” value [1] turn out when `CCCCCCCCCC(=O)N[C@H](C(=O)N[C@@H](CC(N)=O)C(=O)N[C@@H](Cc1c[nH]c2ccccc12)C(=O)N[C@@H](CCCCN)C(=O)N[C@@H](CCCCN)C(=O)N[C@H](C(=O)N[C@@H](CC(C)C)C(=O)NCC(=O)N[C@@H](CCCCN)C(=O)N[C@H](C(=O)N[C@H](C(=O)N[C@@H](CCCCN)C(=O)N[C@H](C(=O)N[C@@H](C)C(=O)N[C@@H](CCCCN)C(N)=O)C(C)C)[C@@H](C)CC)[C@@H](C)CC)C(C)C)C(C)C` [C10-LL-I] (Decanoyl-VNWKKVLGKIIKVAK-NH2) was run?
Answer: 12.5 µg/mL (≈ 6.66 µM)

Question: And the “MIC, S. aureus PCM1650” value [2]?
Answer: 12.5 µg/mL (≈ 6.66 µM)

Question: What about the “MIC, C. krusei CCM8271” value [3] of the same compound?
Answer: 12.5 µg/mL (≈ 6.66 µM)

Question: What about the “MIC, S. epidermidis PCM2118” value [4] of the same compound?
Answer: 6.25 µg/mL (≈ 3.33 µM)

Question: And the “MIC, S. epidermidis PCM521” value [5]?
Answer: 12.5 µg/mL (≈ 6.66 µM)

Question: What about the “SI MCF-7” value [6] of the same compound?
Answer: 1.34

Question: And the “SI PC3” value [7]?
Answer: 0.84

Question: And the “MIC, C. parapsilosis CCM 8260” value [8]?
Answer: 6.25 µg/mL (≈ 3.33 µM)

Question: And the “MIC, C. glabrata CCM8270” value [9]?
Answer: 25 µg/mL (≈ 13.3 µM)

Question: And the “θ222/θ208, POPC” value [10]?
Answer: 0.88

Question: And the “α-Helix percentage, POPC” value ([10]; from ellipticity at 222 nm)?
Answer: 40%

Question: And the “pKITC, POPG” value ([11]; 0.05 or 0.07 mM peptide titrated with 1.3 or 1.8 mM POPG LUVs, one set of sites model (C10-LL-I: two sets of sites, first line))?
Answer: 6.02 ± 1.09

Question: What about the “pKITC, POPG” value ([11]; two sets of sites model, second line) of the same compound?
Answer: 4.69 ± 0.54

Question: What about the “MIC, C. albicans PCM2566” value [12] of the same compound?
Answer: >50 µg/mL

Question: What about the “pKITC, POPC” value [13] of the same compound?
Answer: 4.42 ± 0.24

Question: And the “MIC, E. coli PCM2057” value [14]?
Answer: 25 µg/mL (≈ 13.3 µM)

Question: What about the “θ222/θ208, POPG” value [15] of the same compound?
Answer: 0.98

Question: What about the “α-Helix percentage, POPG” value ([15]; from ellipticity at 222 nm) of the same compound?
Answer: 19%
